The results in this text go back to ChEMBL document CHEMBL4020749, “Phenanthridin-6-one derivatives as the first class of non-steroidal pharmacological chaperones for Niemann-Pick disease type C1 protein” (Bioorg Med Chem Lett, 2017).

pEC50: −log10 of the molar value. Activity calls are given as the source filed them. No cut-off for these calls is given here. Bounds are passed on as bounds.

Broadly, the pEC50 is the negative decadic logarithm of the EC50, by convention in mol/L.

The target in data set [1] is NPC intracellular cholesterol transporter 1 (Homo sapiens, UniProt O15118, I1061T). The data set can be described thus: (§1) Chaperone activity at FLAG/GFP-tagged NPC1 I1061T mutant (unknown origin) expressed in HEK293 cells assessed as increase in localization of protein mutant in late endosomes after 24 hrs by Hoechst 33342 staining based fluorescence microscopic analysis. Format: cell-based. Conditions: for pEC50: read-out: EC50.

The test system of data set [2] is T1, NPC intracellular cholesterol transporter 1 (Homo sapiens), O15118 [I1061T].
T1 sequence (whole entry): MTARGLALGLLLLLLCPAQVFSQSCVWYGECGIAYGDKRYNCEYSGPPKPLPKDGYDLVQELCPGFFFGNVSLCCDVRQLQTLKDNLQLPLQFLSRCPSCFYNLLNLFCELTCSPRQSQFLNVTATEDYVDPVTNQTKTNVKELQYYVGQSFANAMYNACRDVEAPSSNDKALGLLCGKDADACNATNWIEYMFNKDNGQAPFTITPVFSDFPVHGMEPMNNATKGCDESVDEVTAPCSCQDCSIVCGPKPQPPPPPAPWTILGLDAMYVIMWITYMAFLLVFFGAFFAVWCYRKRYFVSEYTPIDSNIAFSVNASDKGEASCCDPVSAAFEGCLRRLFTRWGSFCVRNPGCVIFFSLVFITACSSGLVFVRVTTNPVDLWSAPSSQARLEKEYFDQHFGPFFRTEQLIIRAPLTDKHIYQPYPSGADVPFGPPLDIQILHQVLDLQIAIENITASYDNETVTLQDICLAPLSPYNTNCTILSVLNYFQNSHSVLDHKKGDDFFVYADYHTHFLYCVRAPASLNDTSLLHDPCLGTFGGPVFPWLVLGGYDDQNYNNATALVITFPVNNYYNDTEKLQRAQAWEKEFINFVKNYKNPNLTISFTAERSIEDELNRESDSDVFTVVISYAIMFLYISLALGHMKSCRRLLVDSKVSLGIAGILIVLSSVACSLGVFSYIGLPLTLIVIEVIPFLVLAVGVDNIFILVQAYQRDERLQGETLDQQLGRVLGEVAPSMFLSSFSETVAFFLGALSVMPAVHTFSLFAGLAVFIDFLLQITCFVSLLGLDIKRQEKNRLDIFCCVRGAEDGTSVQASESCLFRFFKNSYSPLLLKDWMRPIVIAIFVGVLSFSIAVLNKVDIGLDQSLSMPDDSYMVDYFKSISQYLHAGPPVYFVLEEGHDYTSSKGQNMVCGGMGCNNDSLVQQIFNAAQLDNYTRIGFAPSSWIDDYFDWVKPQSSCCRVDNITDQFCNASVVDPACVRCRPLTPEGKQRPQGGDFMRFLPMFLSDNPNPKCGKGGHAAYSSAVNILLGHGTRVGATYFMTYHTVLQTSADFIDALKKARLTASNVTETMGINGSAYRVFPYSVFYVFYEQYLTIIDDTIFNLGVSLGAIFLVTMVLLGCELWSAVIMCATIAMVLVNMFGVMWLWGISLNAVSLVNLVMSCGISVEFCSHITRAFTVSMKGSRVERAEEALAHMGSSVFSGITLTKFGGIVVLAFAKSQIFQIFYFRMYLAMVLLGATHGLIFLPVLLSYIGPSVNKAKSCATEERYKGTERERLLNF
As to the kind of experiment: Chaperone activity at FLAG/GFP-tagged NPC1 I1061T mutant (unknown origin) expressed in HEK293 cells assessed as increase in localization of protein mutant in late endosomes at 30 uM after 24 hrs by Hoechst 33342 staining based fluorescence microscopic analysis. It counts as cell-based.

Data set [3] is described as follows: Solubility of the compound in DMEM medium at 30 uM. It counts as physicochemical.
Data set [4] can be described thus: Solubility of the compound in DMEM medium at 10 uM. It counts as physicochemical.
In data set [5] the test system is T1, NPC intracellular cholesterol transporter 1 (Homo sapiens), O15118 [I1061T]. The data set can be described thus: Chaperone activity at FLAG/GFP-tagged NPC1 I1061T mutant (unknown origin) expressed in HEK293 cells assessed as increase in localization of protein mutant in late endosomes at 10 uM after 24 hrs by Hoechst 33342 staining based fluorescence microscopic analysis. Format: cell-based.

Data set [6] concerns HEK293. The data set can be described thus: Chaperone activity at FLAG/GFP-tagged human NPC1L1 L1072T/I1168T double mutant expressed in HEK293 cells assessed as localization of protein mutant in plasma membrane at 3 uM after 24 hrs fluorescence microscopic analysis. It counts as cell-based.
For data set [7], the system named is T1, NPC intracellular cholesterol transporter 1 (Homo sapiens), O15118 [I1061T]. The data set is described as §1. It counts as cell-based.
Data set [8] has the same test system. As to the kind of experiment: Stabilization of FLAG/GFP-tagged NPC1 I1061T mutant (unknown origin) expressed in HEK293 cells assessed as up regulation of NPC1 I1061T mutant expression after 24 hrs by Hoechst 33342 staining based fluorescence microscopic analysis. It counts as cell-based.
For data set [9], the system named is HEK293. The data set can be described thus: Stabilization of FLAG/GFP-tagged human NPC1L1 L1072T/I1168T double mutant expressed in HEK293 cells assessed as up regulation of NPC1L1 L1072T/I1168T double mutant expression at 3 to 30 uM after 24 hrs fluorescence microscopic analysis. It counts as cell-based.
Data set [10] deals with HEK293. The data set can be described thus: Chaperone activity at FLAG/GFP-tagged human NPC1L1 L1072T/I1168T double mutant expressed in HEK293 cells assessed as localization of protein mutant in plasma membrane at 10 uM after 24 hrs fluorescence microscopic analysis. Format: cell-based.
In data set [11] the test system is T1, NPC intracellular cholesterol transporter 1 (Homo sapiens), O15118 [I1061T]. As to the kind of experiment: Chaperone activity at FLAG/GFP-tagged NPC1 I1061T mutant (unknown origin) expressed in HEK293 cells assessed as increase in localization of protein mutant in late endosomes at 1 uM after 24 hrs by Hoechst 33342 staining based fluorescence microscopic analysis. Format: cell-based.

As for `NC(=O)c1ccc2c(c1)c1ccccc1c(=O)n2CCO`, the EC50 result in data set [1] was “Not Active”.
Consider `CCCCn1c(=O)c2ccccc2c2cc(NC(N)=O)ccc21`, for which, in [2], the outcome was inactive.
For `NC(=O)c1ccc2c(c1)c1ccccc1c(=O)n2CC1CCCCC1`, in [1], the pEC50 was 5.44. Besides, the solubility result in data set [3] is listed as “Insoluble”.
On to `CCCCCCCn1c(=O)c2ccccc2c2cc(C(N)=O)ccc21`, for which the pEC50 in data set [1] was below 5.52. The solubility entry in [4] is “Insoluble”.
For the compound `CCCCn1c(=O)c2c(c3cc(C(N)=O)ccc31)CCCCC2`, the negative logarithm of the EC50 (pEC50) in data set [1] is 4.89.
For the compound `CCCCNC(=O)c1ccccc1-c1cccc(C(N)=O)c1`, the result in [2] was inactive.
The same measure, in the same setting: in the case of `CCCCn1c(=O)c2ccccc2c2cc(C(=O)NC3CCCC3)ccc21` it was “inactive”; in that of `CCCCn1c(=O)c2ccccc2c2cc(F)ccc21`, “inactive”; in that of `CCCCn1c(=O)c2ccccc2c2cc(C(=O)NCc3ccccc3)ccc21`, “inactive”.
In the case of `CCCCn1c(=O)c2ccccc2c2cc(C(C)=O)ccc21`, the pEC50 in [1] is below 4.52.
The same measure, in the same setting: in the case of `C=CCn1c(=O)c2ccccc2c2cc(C(N)=O)ccc21` it was below 4.52.
As for `CCCCn1c(=O)c2c(c3cc(C(N)=O)ccc31)CCC2`, the outcome in [2] was inactive.
`CCCCn1c(=O)c2ccccc2c2cc(NS(C)(=O)=O)ccc21`: the pEC50 in data set [1] was 4.85.
Regarding `COCCn1c(=O)c2ccccc2c2cc(C(N)=O)ccc21`, in [1], the EC50 result is “Not Active”.
As to `CCCCn1c(=O)c2ccccc2c2cc(C(=O)NC(C)C)ccc21`, the outcome in [2] was inactive.
Still for that read-out and setting: in the case of `CCCCn1c(=O)c2ccccc2c2cc(C(=O)N3CCOCC3)ccc21` it was “inactive”.
Same read-out and setting: for `CCCCn1c(=O)c2ccccc2c2cc(N)ccc21` the value was “inactive”.
For the compound `CCCCn1c(=O)c2ccccc2c2cc(C(C)O)ccc21` (stereo not given), the pEC50 in [1] is below 4.52.
Consider `CCCCn1c(=O)c2ccccc2c2cc(C(F)(F)F)ccc21`, for which the result in data set [2] was inactive.
Take `CCCCn1c(=O)c2ccccc2c2cc(O)ccc21`: in [1], the pEC50 is below 4.52.
On the same count and under the same terms, for `CCn1c(=O)c2ccccc2c2cc(C(N)=O)ccc21` the value was below 4.52.
Consider `CCCCn1c(=O)c2ccccc2c2cc(C(=O)N3CCCCC3)ccc21`, for which the result in [2] was inactive.
Turning to `CCCCn1c(=O)c2ccccc2c2cc(C(=O)NC)ccc21`, the pEC50 in data set [1] is below 4.52.
Consider `CCCCn1c(=O)c2ccccc2c2ccccc21`, for which the result in data set [2] was inactive.
Consider `CCCn1c(=O)c2ccccc2c2cc(C(N)=O)ccc21`, for which the negative-log EC50 (pEC50) in [1] is 4.72.
Regarding `CCCCn1c(=O)c2c(c3cc(C(N)=O)ccc31)CCCCCC2`, the outcome in [5] was inactive. Besides, in data set [3], the solubility result is “Insoluble”.
For `CCCCn1c(=O)c2ccccc2c2cc(C(N)=O)ccc21`, the pEC50 in data set [1] is 4.96.
Turning to `CCCCn1c(=O)c2ccccc2c2cc(C(=O)NC3CC3)ccc21`, in [2], the outcome was inactive.
On to `CCCCCCn1c(=O)c2ccccc2c2cc(C(N)=O)ccc21`, for which, in data set [1], the pEC50 was below 5.52. For the same compound, the solubility entry in [4] is given as “Insoluble”.
Turning to `CCCCn1c(=O)c2ccccc2c2cc(CO)ccc21`, the pEC50 in [1] is below 4.52.
In the case of `CCCCn1c(=O)c2ccccc2c2cc(C(=O)O)ccc21`, the outcome in data set [2] was inactive.
As for `O=C(O)Cc1cccc(OCCCN(Cc2cccc(C(F)(F)F)c2Cl)CC(c2ccccc2)c2ccccc2)c1`, in data set [2], the result was inactive.
As for `CCCCn1c(=O)c2ccccc2c2cc(N(C)C(C)=O)ccc21`, the result in [2] was inactive.
With `O=S(=O)(c1ccccc1)N(CC(F)(F)F)c1ccc(C(O)(C(F)(F)F)C(F)(F)F)cc1`, the outcome in data set [2] was inactive.
As to `CCCCn1c(=O)c2ccccc2c2cc(C(=O)N(CCO)CCO)ccc21`, the pEC50 in data set [1] was below 4.52.
With `CCCC(=O)N1CC2=C(CCCC2)c2cc(C(N)=O)ccc21`, the result in [2] was inactive.
As to `C[C@H](CCC(=O)N(C)C)[C@H]1CC[C@H]2[C@@H]3CC=C4C[C@@H](OC(=O)N(CCO)CCO)CC[C@]4(C)[C@H]3CC[C@]12C`, the result in [6] was Active.
For `C[Si](C)(C)CCOCn1c(=O)c2ccccc2c2cc(C(N)=O)ccc21`, in data set [1], the pEC50 is 4.80.
For `CCCCCn1c(=O)c2ccccc2c2cc(C(N)=O)ccc21`, the Activity entry in [7] and in data set [8] was “Dose-dependent effect” throughout. In addition, in data set [1], the pEC50 was 5.38. For the same compound, the outcome in data set [9] and in [10] was inactive.
Consider `Cn1c(=O)c2ccccc2c2cc(C(N)=O)ccc21`, for which the negative logarithm of the EC50 (pEC50) in data set [1] is below 4.52.
Same read-out and setting: in the case of `CCCCn1c(=O)c2c(c3cc(C(N)=O)ccc31)CCCC2` it was 4.52.
For `CCCCn1c(=O)c2ccccc2c2cc(C(=O)N(CC)CC)ccc21`, the result in data set [2] was inactive.
Same read-out and setting: for `CCCCn1c(=O)c2ccccc2c2cc(OC(=O)N3CCOCC3)ccc21` the value was “inactive”.
On to `CCCCn1c(=O)c2ccccc2c2cc(C(O)(C(F)(F)F)C(F)(F)F)ccc21`, for which the result in data set [2] was inactive.
Turning to `CCCCCn1c(=O)c2ccccc2c2c(C(N)=O)cccc21`, in data set [1], the EC50 result is “Not Active”. In addition, in data set [4], the solubility result is given as “Insoluble”.
With `CCCCn1c(=O)c2ccccc2c2cc(C(=O)NC3CCCCC3)ccc21`, in data set [2], the result was inactive.
On the same count and under the same terms, in the case of `CCCCn1c(=O)c2ccccc2c2cc(C(=O)NC(C)(C)C)ccc21` it was “inactive”; in that of `CCCCn1c(=O)c2ccccc2c2cc(C(=O)N3CCCC3)ccc21`, “inactive”.
Take `CCCCCn1c(=O)c2ccccc2c2cccc(C(N)=O)c21`: the EC50 result in data set [1] was “Not Active”. The solubility result in data set [3] is “Insoluble”.
Take `CCCCN1C(=O)c2ccccc2Oc2cc(C(N)=O)ccc21`: the result in [2] was inactive.
Turning to `CCCCn1c(=O)c2ccccc2c2cc(NC(=O)C(F)(F)F)ccc21`, the result in data set [2] was inactive.
In the case of `CCCCn1c(=O)c2ccccc2c2cc(C(=O)N(C)C)ccc21`, the negative-log EC50 (pEC50) in data set [1] is below 4.52.
Take `CCCCCn1c(=O)c2ccccc2c2ccc(C(N)=O)cc21`: the EC50 entry in data set [1] is on record as “Not Active”. Besides, the solubility result in [4] is reported as “Insoluble”.
As to `CCCCn1c(=O)c2ccccc2c2cc(NC(C)=O)ccc21`, the pEC50 in data set [1] was 4.85.
In the case of `CCCCn1c(=O)c2ccccc2c2cc(C)ccc21`, the outcome in [2] was inactive.
`CC(C)CCC[C@@H](C)[C@H]1CC[C@H]2[C@@H]3C[C@@H](O)[C@@]4(O)C[C@@H](OCC(=O)N5CCOCC5)CC[C@]4(C)[C@H]3CC[C@]12C`: in [1], the negative-log EC50 (pEC50) is 6.82. Further, the outcome in [11] was Active.
For the compound `CC(C)n1c(=O)c2ccccc2c2cc(C(N)=O)ccc21`, the EC50 result in [1] was “Not Active”.
As for `CCCCN1C(=O)CCc2cc(C(N)=O)ccc21`, the outcome in data set [2] was inactive.
